Each structure is given as a SMILES string. Where a name gives a salt, the structure may show the parent alone.

A word on the fold induction: it is the ratio of treated to control signal.

In this assay the test system is human liver cancer-derived cell line Hep3B. Briefly: In vitro erythropoietin (EPO) induction activity in Hep3B cells (EPO ELISA of culture supernatant). Format: cell-based. The note with it: test compound 12.5 μM, 32 hours at 37° C., multiple of the EPO concentration in the control (0.5% DMSO). How it is done: In vitro erythropoietin (EPO) induction activity of test compounds was evaluated using human liver cancer-derived cell line Hep3B (ATCC, Manassas, Va.). Hep3B cells were cultured overnight at 37° C. in Dulbecco's modified Eagle's medium (DMEM) in the presence of 10% fetal bovine serum (FBS) (24-well plate, 1.0×10^5 cells/well). After replacing with fresh DMEM (+10% FBS) containing a test compound dissolved in 0.5% dimethyl sulfoxide (DMSO) (prepared to a concentration of 12.5 μM) or a solvent control (0.5% DMSO), the cells were cultured for 32 hours at 37° C. After recovering the culture supernatant, EPO concentration in the culture supernatant was quantified using human EPO ELISA kits (StemCell Technologies).
The EPO concentration using a compound of each example as a test compound was expressed as a multiple of the EPO concentration in the control.
(In general: In an ELISA, binding on a coated surface is turned into a signal by an enzyme label.)
The compound `O=C(O)CCC(=O)Nc1ncc(C(=O)NCc2ccc(Cl)cc2Cl)c(O)n1` [Example 1, 4-({5-[(2,4-Dichlorophenyl)methylcarbamoyl]-4-hydroxypyrimidin-2-yl}amino)-4-oxobutanoic acid] had a fold induction at 12.5 µM of 3.6.
Turning to `O=C(O)CCC(=O)Nc1ncc(C(=O)NCc2ccc(F)cc2F)c(O)n1` [Example 2, 4-({5-[(2,4-Difluorophenyl)methylcarbamoyl]-4-hydroxypyrimidin-2-yl}amino)-4-oxobutanoic acid], the fold induction at 12.5 µM is 7.9.
As to `O=C(O)CCC(=O)Nc1ncc(C(=O)NCc2ccc(F)cc2Cl)c(O)n1` [Example 3, 4-({5-[(2-Chloro-4-fluorophenyl)methylcarbamoyl]-4-hydroxypyrimidin-2-yl}amino)-4-oxobutanoic acid], the fold induction at 12.5 µM worked out at 9.5.
To `O=C(O)CCC(=O)Nc1ncc(C(=O)NCc2ccc(F)c(-c3ccccc3)c2)c(O)n1` [Example 5, 4-({5-[(4-Fluoro-3-phenylphenyl)methylcarbamoyl]-4-hydroxypyrimidin-2-yl}amino)-4-oxobutanoic acid] belongs 6.3; to `O=C(O)CCC(=O)Nc1ncc(C(=O)NCc2cccc(-c3ccccc3)c2)c(O)n1` [Example 6, 4-({4-Hydroxy-5-[(3-phenylphenyl)methylcarbamoyl]pyrimidin-2-yl}amino)-4-oxobutanoic acid], 3.7.
In the case of `COc1ccc(C(NC(=O)c2cnc(NC(=O)CCC(=O)O)nc2O)C2CCOCC2)cn1` (stereo not drawn) [Example 9, 4-[(4-Hydroxy-5-{[(6-methoxypyridin-3-yl)(tetrahydro-2H-pyran-4-yl)methyl]carbamoyl}pyrimidin-2-yl)amino]-4-oxobutanoic acid trifluoroacetate] it was 16; in that of `COc1ccc(-c2ccc(C(C)(C)NC(=O)c3cnc(NC(=O)CCC(=O)O)nc3O)cn2)cc1` [Example 10, 4-{[4-Hydroxy-5-({1-[6-(4-methoxyphenyl)pyridin-3-yl]-1-methylethyl}carbamoyl)pyrimidin-2-yl]amino}-4-oxobutanoic acid trifluoroacetate], 10.
The compound `O=C(O)CCC(=O)Nc1ncc(C(=O)NCc2cccc(C(F)(F)F)c2)c(O)n1` [Example 11, 4-[(4-Hydroxy-5-{[3-(trifluoromethyl)phenyl]methylcarbamoyl}pyrimidin-2-yl)amino]-4-oxobutanoic acid] displayed a fold induction at 12.5 µM of 7.5.
To `O=C(O)CCC(=O)Nc1ncc(C(=O)NCc2cccc(F)c2)c(O)n1` [Example 12, 4-({5-[(3-Fluorophenyl)methylcarbamoyl]-4-hydroxypyrimidin-2-yl}amino)-4-oxobutanoic acid] belongs 7.2; to `O=C(O)CCC(=O)Nc1ncc(C(=O)NCc2ccc(F)c(F)c2)c(O)n1` [Example 13, 4-({5-[(3,4-Difluorophenyl)methylcarbamoyl]-4-hydroxypyrimidin-2-yl}amino)-4-oxobutanoic acid], 13.
To `Cc1cccc(CNC(=O)c2cnc(NC(=O)CCC(=O)O)nc2O)c1` [Example 14, 4-{[4-Hydroxy-5-(m-tolylmethylcarbamoyl)pyrimidin-2-yl]amino}-4-oxobutanoic acid] belongs 3; to `O=C(O)CCC(=O)Nc1ncc(C(=O)NCc2cccc(C3CCCC3)c2)c(O)n1` [Example 17, 4-({5-[(3-Cyclopentylphenyl)methylcarbamoyl]-4-hydroxypyrimidin-2-yl}amino)-4-oxobutanoic acid], 4.4.

(Values after US9206168B2, “(2-heteroarylamino) succinic acid derivatives” (Daiichi Sankyo Company, Limited, priority 2012, dated 2015).)
